In brackets after ≈: the same amount, converted by molar mass. Counter-ions that a name gives are not always drawn. Like-named read-outs stand apart in the source and are kept apart here. Blank lines part the entries; values can stand above or below the compound they belong to.
Legend:
Treponema hyodysenteriae = experiment: Minimum inhibiting concentration against Treponema hyodysenteriae, agar diffusion test with dilution series; type: cell-based; conditions: for MIC: Brachyspira hyodysenteriae, read-out: Minimum inhibiting concentration (MIC)
Protocol: In order to detect the surprising effect on Treponema hyodysenteriae, this microorganism was cultivated according to the method of Harris on a trypticase-soy-agar using an addition of horse blood of 5% in a CO2 /H2 atmosphere, and the minimum inhibiting concentration of Salinomycin was determined in the agar diffusion test, while using the corresponding dilution series, as compared against commercial preparations showing a particularly good effect in dysentery diseases.

[1] = Feeding test with Salinomycin as mycelium: growth and feed efficiency in early weaned piglets (Example 3); type: in vivo; conditions: for Feed efficiency per animal, relative / Weight gain per animal, relative: relative to control
Protocol: A feeding test using Salinomycin as a mycelium was carried out on 47 piglets weaned at an early age (4 weeks old) which were kept in sub-groups comprising 4 and 3 animals, respectively. The initial weight was 9.8 kg on an average. The feed ration indicated in Example 1 served as basic feed.
4 Sub-groups comprising 15 animals altogether formed the untreated control group. 4 Sub-groups comprising 16 animals altogether were given 50 mg of Salinomycin as a mycelium per kg of feed, and 4 sub-groups comprising 16 animals altogether were given 50 mg of a comparison preparation A (5-Nitroimidazol) per kg of feed. The test period was 8 weeks, with individual weighing at intervals of 2 weeks.

[2] = Feeding test with Salinomycin as raw product: growth and feed efficiency in early weaned piglets (Example 2); type: in vivo; conditions: for statistical significance of the improvement (weight gain and feed efficiency): vs control; for Feed efficiency per animal, relative / Weight gain per animal, relative: relative to control
Protocol: A feeding test using Salinomycin as a raw product was carried out on 46 piglets weaned at an early age (4 weeks old) that were kept in sub-groups comprising 3 or 4 animals.
Initial weight: 9.8 kg on an average. The feed ration indicated in Example 1 served as basic feed.
4 Sub-groups comprising 15 animals altogether formed the untreated control group. 4 Sub-groups comprising 16 animals altogether were given 25 mg of Salinomycin as raw product per kg of feed, and 4sub-groups comprising 15 animals altogether were given 50 mg of Salinomycin per kg of feed in the form of the raw product. The test period was 8 weeks, with individual weighing at intervals of 2 weeks.

[3] = Piglet test S 83/75: incidence of diarrhea in feeding test (Example 1); type: in vivo, piglets
Protocol: A feeding test using Salinomycin was carried out on 78 piglets which were kept in boxes with 4 (or 3) animals each. At the beginning of the test, the animals were about 4 weeks old. Four replicates formed one group, and the following treatments were carried out:
1st group: untreated control group
2nd group: Salinomycin as raw product 25 mg/kg of fodder
3rd group: Salinomycin as raw product 50 mg/kg of fodder
4th group: Salinomycin as mycelium 50 mg/kg of fodder
5th group: comparison preparation A 50 mg/kg of fodder (5-Nitromidazol)
The basic feed had the following composition:
The occurrence of diarrhea in the individual boxes (sub-groups) was registered in the test periods of 14 days each and in the total test run of 56 days.

specified microorganisms = conditions: antibacterial spectrum, J. Antibiotics 1974; cited from earlier work
[4] = trypticase-soy-agar with 5% horse blood, CO2/H2 atmosphere
[5] = 50 mg per kg of feed as mycelium, 8 weeks
[6] = 50 ppm (Salinomycin as mycelium), 2 weeks
[7] = 50 ppm (Salinomycin as mycelium), 4 weeks
[8] = 50 ppm (Salinomycin as mycelium), 6 weeks
[9] = 50 ppm (Salinomycin as mycelium), 8 weeks
[10] = raw product 25 ppm, 8 weeks, ++ 99% significance
[11] = raw product 50 ppm, 8 weeks, +++ 99.9% significance

SMILES: C[n+]1c2cc(N)ccc2cc2ccc(N)cc21.[Cl-] [3,6-Diamino-10-methyl-acridinium chloride]
MIC (Treponema hyodysenteriae): 100 µg/mL

MIC (Treponema hyodysenteriae; [4]): 5 µg/mL (≈ 35.4 µM)
SMILES: Cc1ncc([N+](=O)[O-])n1C [Dimethridazol]

SMILES: CC[C@H]1OC(=O)[C@H](C)[C@@H](O[C@H]2C[C@@](C)(OC)[C@@H](O)[C@H](C)O2)[C@H](C)[C@@H](O[C@@H]2O[C@H](C)C[C@H](N(C)C)[C@H]2O)[C@](C)(O)C[C@@H](C)C(=O)[C@H](C)[C@@H](O)[C@]1(C)O [Erythromycin]
MIC (Treponema hyodysenteriae): > 100 µg/mL

MIC (Treponema hyodysenteriae; [4]): 100 µg/mL
SMILES: CCOc1ccc2nc3cc(N)ccc3c(N)c2c1 [Ethacridine lactate]

MIC (Treponema hyodysenteriae; [4]): 2 µg/mL (≈ 11.8 µM)
SMILES: CC(C)c1ncc([N+](=O)[O-])n1C [Ipronidazol]

SMILES: CN(C)[C@@H]1C(=O)C(C(N)=O)=C(O)[C@@]2(O)C(=O)C3=C(O)c4c(O)cccc4[C@@](C)(O)[C@H]3[C@H](O)[C@@H]12 [Oxytetracycline]
MIC (Treponema hyodysenteriae): 100 µg/mL (≈ 217 µM)

SMILES: CC[C@@H](C(=O)[C@@H](C)[C@@H](O)[C@H](C)[C@@H]1O[C@@H]([C@@H](CC)C(=O)O)CC[C@@H]1C)[C@H]1O[C@]2(C=C[C@@H](O)[C@]3(CC[C@@](C)([C@H]4CC[C@](O)(CC)[C@H](C)O4)O3)O2)[C@H](C)C[C@@H]1C [Salinomycin]
statistical significance of the improvement of the feed efficiency [1, 5]: 99%
statistical significance of the improvement of the weight development [1, 5]: 99.9%
Daily weight gain per animal [1, 6]: 164 g
Feed efficiency per animal, absolute [1, 6]: 1.983
Weight gain per animal, absolute [1, 6]: 2.3 kg
Feed efficiency per animal, relative [1, 6]: 100.0%
Weight gain per animal, relative [1, 6]: 100.0%
Daily weight gain per animal [1, 7]: 261 g
Feed efficiency per animal, absolute [1, 7]: 1.726
Weight gain per animal, absolute [1, 7]: 7.3 kg
Feed efficiency per animal, relative [1, 7]: 91.8%
Weight gain per animal, relative [1, 7]: 109.2%
Daily weight gain per animal [1, 8]: 332 g
Feed efficiency per animal, absolute [1, 8]: 1.723
Weight gain per animal, absolute [1, 8]: 13.6 kg
Feed efficiency per animal, relative [1, 8]: 92.6%
Weight gain per animal, relative [1, 8]: 108.1%
Daily weight gain per animal [1, 9]: 393 g
Feed efficiency per animal, absolute [1, 9]: 1.837
Weight gain per animal, absolute [1, 9]: 22.0 kg
Feed efficiency per animal, relative ([1]; 50 ppm (Salinomycin as mycelium, ++ 99% significance), 8 weeks): 93.2%
Weight gain per animal, relative ([1]; 50 ppm (Salinomycin as mycelium, +++ 99.9% significance), 8 weeks): 107.4%
MIC (Treponema hyodysenteriae): 0.05 µg/mL (≈ 0.0666 µM)
effect on Treponema hyodysenteriae (Treponema hyodysenteriae; compared against commercial preparations, Table 1): superior effect
statistical significance of the improvement (weight gain and feed efficiency) ([2]; raw product 25 mg per kg of feed): 99%
statistical significance of the improvement (weight gain and feed efficiency) ([2]; raw product 50 mg per kg of feed): 99.9%
Daily weight gain per animal ([2]; raw product 25 ppm, 2 weeks): 171 g
Feed efficiency per animal, absolute ([2]; raw product 25 ppm, 2 weeks): 1.900
Weight gain per animal, absolute ([2]; raw product 25 ppm, 2 weeks): 2.4 kg
Feed efficiency per animal, relative ([2]; raw product 25 ppm, 2 weeks): 95.8%
Weight gain per animal, relative ([2]; raw product 25 ppm, 2 weeks): 104.3%
Daily weight gain per animal ([2]; raw product 25 ppm, 4 weeks): 250 g
Feed efficiency per animal, absolute ([2]; raw product 25 ppm, 4 weeks): 1.800
Weight gain per animal, absolute ([2]; raw product 25 ppm, 4 weeks): 7.0 kg
Feed efficiency per animal, relative ([2]; raw product 25 ppm, 4 weeks): 95.7%
Weight gain per animal, relative ([2]; raw product 25 ppm, 4 weeks): 104.6%
Daily weight gain per animal ([2]; raw product 25 ppm, 6 weeks): 317 g
Feed efficiency per animal, absolute ([2]; raw product 25 ppm, 6 weeks): 1.802
Weight gain per animal, absolute ([2]; raw product 25 ppm, 6 weeks): 13.0 kg
Feed efficiency per animal, relative ([2]; raw product 25 ppm, 6 weeks): 96.9%
Weight gain per animal, relative ([2]; raw product 25 ppm, 6 weeks): 103.3%
Daily weight gain per animal ([2]; raw product 25 ppm, 8 weeks): 380 g
Feed efficiency per animal, absolute ([2]; raw product 25 ppm, 8 weeks): 1.898
Weight gain per animal, absolute ([2]; raw product 25 ppm, 8 weeks): 21.3 kg
Feed efficiency per animal, relative [2, 10]: 96.2%
Weight gain per animal, relative [2, 10]: 103.8%
Daily weight gain per animal ([2]; raw product 50 ppm, 2 weeks): 171 g
Feed efficiency per animal, absolute ([2]; raw product 50 ppm, 2 weeks): 1.900
Weight gain per animal, absolute ([2]; raw product 50 ppm, 2 weeks): 2.4 kg
Feed efficiency per animal, relative ([2]; raw product 50 ppm, 2 weeks): 95.8%
Weight gain per animal, relative ([2]; raw product 50 ppm, 2 weeks): 104.3%
Daily weight gain per animal ([2]; raw product 50 ppm, 4 weeks): 257 g
Feed efficiency per animal, absolute ([2]; raw product 50 ppm, 4 weeks): 1.750
Weight gain per animal, absolute ([2]; raw product 50 ppm, 4 weeks): 7.2 kg
Feed efficiency per animal, relative ([2]; raw product 50 ppm, 4 weeks): 93.0%
Weight gain per animal, relative ([2]; raw product 50 ppm, 4 weeks): 107.5%
Daily weight gain per animal ([2]; raw product 50 ppm, 6 weeks): 337 g
Feed efficiency per animal, absolute ([2]; raw product 50 ppm, 6 weeks): 1.698
Weight gain per animal, absolute ([2]; raw product 50 ppm, 6 weeks): 13.8 kg
Feed efficiency per animal, relative ([2]; raw product 50 ppm, 6 weeks): 91.3%
Weight gain per animal, relative ([2]; raw product 50 ppm, 6 weeks): 109.8%
Daily weight gain per animal ([2]; raw product 50 ppm, 8 weeks): 396 g
Feed efficiency per animal, absolute ([2]; raw product 50 ppm, 8 weeks): 1.821
Weight gain per animal, absolute ([2]; raw product 50 ppm, 8 weeks): 22.2 kg
Feed efficiency per animal, relative [2, 11]: 92.3%
Weight gain per animal, relative [2, 11]: 108.2%
Incidence of diarrhea, per cent of test days ([3]; 50 ppm (Salinomycin as mycelium), 1st and 2nd week): 19.6%
Incidence of diarrhea in test days ([3]; 50 ppm (Salinomycin as mycelium), 1st and 2nd week, of 56 test days): 11 days
Incidence of diarrhea, per cent of test days ([3]; 50 ppm (Salinomycin as mycelium), 1st through 8th week): 10.7%
Incidence of diarrhea in test days ([3]; 50 ppm (Salinomycin as mycelium), 1st through 8th week, of 224 test days): 24 days
Incidence of diarrhea, per cent of test days ([3]; 50 ppm (Salinomycin as mycelium), 3rd and 4th week): 5.4%
Incidence of diarrhea in test days ([3]; 50 ppm (Salinomycin as mycelium), 3rd and 4th week, of 56 test days): 3 days
Incidence of diarrhea, per cent of test days ([3]; 50 ppm (Salinomycin as mycelium), 5th and 6th week): 7.1%
Incidence of diarrhea in test days ([3]; 50 ppm (Salinomycin as mycelium), 5th and 6th week, of 56 test days): 4 days
Incidence of diarrhea, per cent of test days ([3]; 50 ppm (Salinomycin as mycelium), 7th and 8th week): 10.7%
Incidence of diarrhea in test days ([3]; 50 ppm (Salinomycin as mycelium), 7th and 8th week, of 56 test days): 6 days
influence on the incidence of diarrhea ([3]; depending on the dosage, against untreated control and comparison preparation): very good influence on the incidence of diarrhea
Incidence of diarrhea, per cent of test days ([3]; raw product 25 ppm, 1st and 2nd week): 48.2%
Incidence of diarrhea in test days ([3]; raw product 25 ppm, 1st and 2nd week, of 56 test days): 27 days
Incidence of diarrhea, per cent of test days ([3]; raw product 25 ppm, 1st through 8th week): 60.3%
Incidence of diarrhea in test days ([3]; raw product 25 ppm, 1st through 8th week, of 224 test days): 135 days
Incidence of diarrhea, per cent of test days ([3]; raw product 25 ppm, 3rd and 4th week): 46.6%
Incidence of diarrhea in test days ([3]; raw product 25 ppm, 3rd and 4th week, of 56 test days): 26 days
Incidence of diarrhea, per cent of test days ([3]; raw product 25 ppm, 5th and 6th week): 69.6%
Incidence of diarrhea in test days ([3]; raw product 25 ppm, 5th and 6th week, of 56 test days): 39 days
Incidence of diarrhea, per cent of test days ([3]; raw product 25 ppm, 7th and 8th week): 76.8%
Incidence of diarrhea in test days ([3]; raw product 25 ppm, 7th and 8th week, of 56 test days): 43 days
Incidence of diarrhea, per cent of test days ([3]; raw product 50 ppm, 1st and 2nd week): 12.5%
Incidence of diarrhea in test days ([3]; raw product 50 ppm, 1st and 2nd week, of 56 test days): 7 days
Incidence of diarrhea, per cent of test days ([3]; raw product 50 ppm, 1st through 8th week): 19.1%
Incidence of diarrhea in test days ([3]; raw product 50 ppm, 1st through 8th week, of 224 test days): 43 days
Incidence of diarrhea, per cent of test days ([3]; raw product 50 ppm, 3rd and 4th week): 12.5%
Incidence of diarrhea in test days ([3]; raw product 50 ppm, 3rd and 4th week, of 56 test days): 7 days
Incidence of diarrhea, per cent of test days ([3]; raw product 50 ppm, 5th and 6th week): 28.6%
Incidence of diarrhea in test days ([3]; raw product 50 ppm, 5th and 6th week, of 56 test days): 16 days
Incidence of diarrhea, per cent of test days ([3]; raw product 50 ppm, 7th and 8th week): 23.2%
Incidence of diarrhea in test days ([3]; raw product 50 ppm, 7th and 8th week, of 56 test days): 13 days
effect against the specified microorganisms (specified microorganisms): only an insiginificant or moderate effect

SMILES: CN(C)[C@@H]1C(O)=C(C(N)=O)C(=O)[C@@]2(O)C(O)=C3C(=O)c4c(O)cccc4[C@@](C)(O)[C@H]3C[C@@H]12 [Tetracycline-HCl]
MIC (Treponema hyodysenteriae): 50 µg/mL

SMILES: CC[C@H]1OC(=O)C[C@@H](O)[C@H](C)[C@@H](O[C@@H]2O[C@H](C)[C@@H](O[C@H]3C[C@@](C)(O)[C@@H](O)[C@H](C)O3)[C@H](N(C)C)[C@H]2O)[C@@H](CC=O)C[C@@H](C)C(=O)/C=C/C(C)=C/[C@@H]1CO[C@@H]1O[C@H](C)[C@@H](O)[C@@H](OC)[C@H]1OC [Tylosin]
MIC (Treponema hyodysenteriae): > 100 µg/mL
